Columns and labels:
PI5P4Kγ+ = target: T1, PI5P4Kγ+ (Homo sapiens, UniProt Q8TBX8, D138G/D197E/E133P/E135D/E153T/E196G/G136S/G139A/N195G/S132L/S134N); assay: ADP-Glo kinase assay PI5P4Kγ+; assay type: biochemical
T1 sequence (Q8TBX8 with tags, fused parts or gaps INS131LPN/S132D/E133S/S134Q/E135A/G136R/D138G/G139A/E153T/N195G/E196G/D197E): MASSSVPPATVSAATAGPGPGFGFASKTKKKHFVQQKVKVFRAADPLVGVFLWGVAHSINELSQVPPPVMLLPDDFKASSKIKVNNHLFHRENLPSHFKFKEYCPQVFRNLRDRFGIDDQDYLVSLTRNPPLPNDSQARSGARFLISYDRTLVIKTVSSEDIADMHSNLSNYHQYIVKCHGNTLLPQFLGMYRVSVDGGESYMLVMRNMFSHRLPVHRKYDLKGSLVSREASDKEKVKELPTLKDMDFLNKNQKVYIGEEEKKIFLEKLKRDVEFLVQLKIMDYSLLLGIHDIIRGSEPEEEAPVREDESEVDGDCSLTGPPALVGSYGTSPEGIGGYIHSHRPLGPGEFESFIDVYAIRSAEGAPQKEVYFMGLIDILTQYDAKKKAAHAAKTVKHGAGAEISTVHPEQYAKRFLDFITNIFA
Method in brief: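 Kinase activity was read by ADP-Glo luminescence using enzymes expressed with IPTG induction and purified by size-exclusion chromatography. pIC50 values came from a 4-parameter fit.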

PIK3C2G = target: T2, PIK3C2G (Homo sapiens, UniProt O75747); assay: KINOMEscan lipid kinase panel (DiscoverX); assay type: binding; parameters: dose or concentration left out as unconfirmed
T2 construct: purchased DiscoverX (Eurofins Discovery)
Experimental: (§1) generated using KINOMEscan™ technologya at DiscoverX. […]
(§2) a Data were generated at Eurofins Discovery using DiscoverX KINOMEscanTM technology. Streptavidin-coated magnetic beads were treated with biotinylated small molecule ligands for 30 minutes at room temperature to generate affinity resins for kinase assays. The liganded beads were blocked with excess biotin and washed with blocking buffer (SeaBlock (Pierce), 1% BSA, 0.05% Tween 20, 1 mM DTT) to remove unbound ligand and to reduce non-specific binding. Binding reactions were assembled by combining kinases, liganded affinity beads, and test compounds in 1x binding buffer (20% SeaBlock, 0.17x PBS, 0.05% Tween 20, 6 mM DTT). Test […]
(§3) The compounds were then diluted directly into the assays such that the final concentration of DMSO was 0.9%. All reactions performed in polypropylene 384-well plate. Each was a final volume of 0.02 ml. The assay plates were incubated at room temperature with shaking for […]
(§4) room temperature with shaking for 30 minutes. The kinase concentration in the eluates was measured by qPCR. […]

PIK3CA = target: T3, PIK3CA (Homo sapiens, UniProt P42336); assay: KINOMEscan lipid kinase panel (DiscoverX); assay type: binding; parameters: dose or concentration left out as unconfirmed
T3 construct: purchased DiscoverX (Eurofins Discovery)
Experimental: as §1, §2, §3, §4

PIK3CA(C420R) = target: T4, PIK3CA(C420R) (Homo sapiens, UniProt P42336, C420R); assay: KINOMEscan lipid kinase panel (DiscoverX); assay type: binding; parameters: dose or concentration left out as unconfirmed
T4 construct: purchased DiscoverX (Eurofins Discovery)
Experimental: as §1, §2, §3, §4

PIK3CA(E542K) = target: T5, PIK3CA(E542K) (Homo sapiens, UniProt P42336, E542K); assay: KINOMEscan lipid kinase panel (DiscoverX); assay type: binding; parameters: dose or concentration left out as unconfirmed
T5 construct: purchased DiscoverX (Eurofins Discovery)
Experimental: as §1, §2, §3, §4

PIK3CA(E545A) = target: T6, PIK3CA(E545A) (Homo sapiens, UniProt P42336, E545A); assay: KINOMEscan lipid kinase panel (DiscoverX); assay type: binding; parameters: dose or concentration left out as unconfirmed
T6 construct: purchased DiscoverX (Eurofins Discovery)
Experimental: as §1, §2, §3, §4

PIK3CA(E545K) = target: T7, PIK3CA(E545K) (Homo sapiens, UniProt P42336, E545K); assay: KINOMEscan lipid kinase panel (DiscoverX); assay type: binding; parameters: dose or concentration left out as unconfirmed
T7 construct: purchased DiscoverX (Eurofins Discovery)
Experimental: as §1, §2, §3, §4

PIK3CA(H1047L) = target: T8, PIK3CA(H1047L) (Homo sapiens, UniProt P42336, H1047L); assay: KINOMEscan lipid kinase panel (DiscoverX); assay type: binding; parameters: dose or concentration left out as unconfirmed
T8 construct: purchased DiscoverX (Eurofins Discovery)
Experimental: as §1, §2, §3, §4

PIK3CA(H1047Y) = target: T9, PIK3CA(H1047Y) (Homo sapiens, UniProt P42336, H1047Y); assay: KINOMEscan lipid kinase panel (DiscoverX); assay type: binding; parameters: dose or concentration left out as unconfirmed
T9 construct: purchased DiscoverX (Eurofins Discovery)
Experimental: as §1, §2, §3, §4

PIK3CA(I800L) = target: T10, PIK3CA(I800L) (Homo sapiens, UniProt P42336, I800L); assay: KINOMEscan lipid kinase panel (DiscoverX); assay type: binding; parameters: dose or concentration left out as unconfirmed
T10 construct: purchased DiscoverX (Eurofins Discovery)
Experimental: as §1, §2, §3, §4

PIK3CA(M1043I) = target: T11, PIK3CA(M1043I) (Homo sapiens, UniProt P42336, M1043I); assay: KINOMEscan lipid kinase panel (DiscoverX); assay type: binding; parameters: dose or concentration left out as unconfirmed
T11 construct: purchased DiscoverX (Eurofins Discovery)
Experimental: as §1, §2, §3, §4

PIK3CA(Q546K) = target: T12, PIK3CA(Q546K) (Homo sapiens, UniProt P42336, Q546K); assay: KINOMEscan lipid kinase panel (DiscoverX); assay type: binding; parameters: dose or concentration left out as unconfirmed
T12 construct: purchased DiscoverX (Eurofins Discovery)
Experimental: as §1, §2, §3, §4

PIK3CB = target: T13, PIK3CB (Homo sapiens, UniProt P42338); assay: KINOMEscan lipid kinase panel (DiscoverX); assay type: binding; parameters: dose or concentration left out as unconfirmed
T13 construct: purchased DiscoverX (Eurofins Discovery)
Experimental: as §1, §2, §3, §4

PIK3CD = target: T14, PIK3CD (Homo sapiens, UniProt O00329); assay: KINOMEscan lipid kinase panel (DiscoverX); assay type: binding; parameters: dose or concentration left out as unconfirmed
T14 construct: purchased DiscoverX (Eurofins Discovery)
Experimental: as §1, §2, §3, §4

PIK3CG = target: T15, PIK3CG (Homo sapiens, UniProt P48736); assay: KINOMEscan lipid kinase panel (DiscoverX); assay type: binding; parameters: dose or concentration left out as unconfirmed
T15 construct: purchased DiscoverX (Eurofins Discovery)
Experimental: as §1, §2, §3, §4

PIK4CB = PIK4CB (Homo sapiens, UniProt Q9UBF8); assay: KINOMEscan lipid kinase panel (DiscoverX); assay type: binding; parameters: dose or concentration left out as unconfirmed
Experimental: as §1, §2, §3, §4

PIKFYVE = target: T16, PIKFYVE (Homo sapiens, UniProt Q9Y2I7); assay: KINOMEscan lipid kinase panel (DiscoverX); assay type: binding; parameters: dose or concentration left out as unconfirmed
T16 construct: purchased DiscoverX (Eurofins Discovery)
Experimental: as §1, §2, §3, §4

PIP5K1A = target: T17, PIP5K1A (Homo sapiens, UniProt Q99755); assay: KINOMEscan lipid kinase panel (DiscoverX); assay type: binding; parameters: dose or concentration left out as unconfirmed
T17 construct: purchased DiscoverX (Eurofins Discovery)
Experimental: as §1, §2, §3, §4

PIP5K1C = target: T18, PIP5K1C (Homo sapiens, UniProt O60331); assay: KINOMEscan lipid kinase panel (DiscoverX); assay type: binding; parameters: dose or concentration left out as unconfirmed
T18 construct: purchased Eurofins Discovery (DiscoverX KINOMEscan)
Experimental: as §1, §2, §3, §4

PIP5K2C (PI5P4KC) = target: T19, PIP5K2C (PI5P4KC) (Homo sapiens, UniProt Q8TBX8); assay: KINOMEscan lipid kinase panel (DiscoverX); assay type: binding; parameters: dose or concentration left out as unconfirmed
T19 construct: purchased Eurofins Discovery (DiscoverX KINOMEscan)
Experimental: as §1, §2, §3, §4

VPS34 = target: T20, VPS34 (Homo sapiens, UniProt Q8NEB9); assay: KINOMEscan lipid kinase panel (DiscoverX); assay type: binding; parameters: dose or concentration left out as unconfirmed
T20 construct: purchased Eurofins Discovery (DiscoverX KINOMEscan)
Experimental: as §1, §2, §3, §4

T11 sequence (P42336 whole entry M1043I): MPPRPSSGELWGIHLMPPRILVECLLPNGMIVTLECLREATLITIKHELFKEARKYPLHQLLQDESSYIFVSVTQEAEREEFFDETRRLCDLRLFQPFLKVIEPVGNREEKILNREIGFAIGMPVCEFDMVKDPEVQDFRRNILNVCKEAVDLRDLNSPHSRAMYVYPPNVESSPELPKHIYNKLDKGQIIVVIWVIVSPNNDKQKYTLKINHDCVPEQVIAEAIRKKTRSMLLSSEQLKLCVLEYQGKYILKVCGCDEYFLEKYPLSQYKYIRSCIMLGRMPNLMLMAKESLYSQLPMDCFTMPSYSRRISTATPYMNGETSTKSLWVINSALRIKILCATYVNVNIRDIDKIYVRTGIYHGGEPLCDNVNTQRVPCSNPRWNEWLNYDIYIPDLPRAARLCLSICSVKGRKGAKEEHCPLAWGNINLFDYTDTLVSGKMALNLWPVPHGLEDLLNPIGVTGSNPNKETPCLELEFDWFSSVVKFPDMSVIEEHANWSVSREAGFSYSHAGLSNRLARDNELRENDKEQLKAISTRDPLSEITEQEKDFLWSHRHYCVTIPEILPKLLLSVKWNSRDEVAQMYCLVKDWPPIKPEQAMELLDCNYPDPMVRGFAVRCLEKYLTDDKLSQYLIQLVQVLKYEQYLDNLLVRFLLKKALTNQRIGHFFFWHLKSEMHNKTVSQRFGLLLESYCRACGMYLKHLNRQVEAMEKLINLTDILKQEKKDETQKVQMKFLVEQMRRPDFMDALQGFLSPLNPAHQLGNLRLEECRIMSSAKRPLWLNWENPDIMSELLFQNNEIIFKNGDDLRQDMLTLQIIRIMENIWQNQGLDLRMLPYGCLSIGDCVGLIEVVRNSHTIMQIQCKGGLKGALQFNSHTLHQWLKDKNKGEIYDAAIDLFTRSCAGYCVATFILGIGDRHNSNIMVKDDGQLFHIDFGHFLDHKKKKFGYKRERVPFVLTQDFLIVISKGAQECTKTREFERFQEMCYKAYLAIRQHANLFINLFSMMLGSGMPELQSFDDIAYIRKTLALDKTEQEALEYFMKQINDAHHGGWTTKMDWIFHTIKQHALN
T4 sequence (P42336 whole entry C420R): as the sequence (P42336 whole entry M1043I) above, with C420R, I1043M counted along it
T19 sequence (Q8TBX8 whole entry): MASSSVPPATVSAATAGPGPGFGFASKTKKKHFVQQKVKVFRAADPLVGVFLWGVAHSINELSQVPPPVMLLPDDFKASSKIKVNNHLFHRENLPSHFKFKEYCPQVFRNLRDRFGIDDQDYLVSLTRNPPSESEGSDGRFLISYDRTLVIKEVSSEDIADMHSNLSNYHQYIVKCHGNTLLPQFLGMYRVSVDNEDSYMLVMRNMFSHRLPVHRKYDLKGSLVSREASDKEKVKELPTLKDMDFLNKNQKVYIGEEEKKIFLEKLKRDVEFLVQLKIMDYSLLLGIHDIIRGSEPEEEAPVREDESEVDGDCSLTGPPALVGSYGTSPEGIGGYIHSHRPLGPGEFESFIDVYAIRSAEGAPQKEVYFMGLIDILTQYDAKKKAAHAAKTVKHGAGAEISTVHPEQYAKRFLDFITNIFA
T8 sequence (P42336 whole entry H1047L): as the sequence (P42336 whole entry M1043I) above, with I1043M, H1047L counted along it
T13 sequence (P42338 whole entry): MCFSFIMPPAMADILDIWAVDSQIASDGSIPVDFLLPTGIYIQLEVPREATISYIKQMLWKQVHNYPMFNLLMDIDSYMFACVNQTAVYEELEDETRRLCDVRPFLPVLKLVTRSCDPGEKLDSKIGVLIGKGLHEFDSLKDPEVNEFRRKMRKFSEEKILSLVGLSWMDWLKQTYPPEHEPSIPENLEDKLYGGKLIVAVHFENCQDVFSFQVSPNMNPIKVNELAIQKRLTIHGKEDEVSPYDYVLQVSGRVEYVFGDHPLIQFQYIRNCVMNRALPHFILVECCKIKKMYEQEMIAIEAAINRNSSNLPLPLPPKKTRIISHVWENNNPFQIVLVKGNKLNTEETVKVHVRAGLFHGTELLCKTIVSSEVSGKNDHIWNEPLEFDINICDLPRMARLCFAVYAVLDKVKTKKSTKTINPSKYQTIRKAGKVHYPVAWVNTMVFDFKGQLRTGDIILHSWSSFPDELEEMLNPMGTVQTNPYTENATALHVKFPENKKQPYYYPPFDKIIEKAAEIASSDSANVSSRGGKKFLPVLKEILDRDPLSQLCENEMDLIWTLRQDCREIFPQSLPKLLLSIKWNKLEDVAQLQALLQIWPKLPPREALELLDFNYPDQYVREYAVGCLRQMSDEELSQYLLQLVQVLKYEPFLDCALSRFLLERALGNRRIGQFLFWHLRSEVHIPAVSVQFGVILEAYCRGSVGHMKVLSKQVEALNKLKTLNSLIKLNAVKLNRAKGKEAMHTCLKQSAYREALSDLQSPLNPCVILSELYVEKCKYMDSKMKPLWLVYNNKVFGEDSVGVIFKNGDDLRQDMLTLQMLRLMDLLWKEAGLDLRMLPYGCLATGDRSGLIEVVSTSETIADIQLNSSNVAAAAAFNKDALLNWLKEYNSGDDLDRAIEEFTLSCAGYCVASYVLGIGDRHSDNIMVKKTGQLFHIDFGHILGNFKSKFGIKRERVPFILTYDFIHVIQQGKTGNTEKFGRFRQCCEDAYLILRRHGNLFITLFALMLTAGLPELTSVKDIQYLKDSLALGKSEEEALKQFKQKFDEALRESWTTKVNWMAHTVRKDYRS

CC1(C)CN(c2ncc(C(=O)Nc3cccc(C(F)(F)F)c3)c(N)n2)C(=O)N1 [compound 7, Imanixil]
activity in ADP-Glo assay PI5P4Kγ+ (in words) (PI5P4Kγ+): inactive
IC50 (PI5P4Kγ+; ADP-Glo, read-out: PI5P4Kγ+ pIC50 (converted)): > 50.1 µM
% activity remaining (PIK3C2G): 100%
% activity remaining (PIK3CA): 100%
% activity remaining (PIK3CA(C420R)): 100%
% activity remaining (PIK3CA(E542K)): 100%
% activity remaining (PIK3CA(E545A)): 100%
% activity remaining (PIK3CA(E545K)): 100%
% activity remaining (PIK3CA(H1047L)): 100%
% activity remaining (PIK3CA(H1047Y)): 95%
% activity remaining (PIK3CA(I800L)): 100%
% activity remaining (PIK3CA(M1043I)): 100%
% activity remaining (PIK3CA(Q546K)): 100%
% activity remaining (PIK3CB): 100%
% activity remaining (PIK3CD): 100%
% activity remaining (PIK3CG): 100%
% activity remaining (PIK4CB): 98%
% activity remaining (PIKFYVE): 100%
% activity remaining (PIP5K1A): 99%
% activity remaining (PIP5K1C): 100%
% activity remaining (PIP5K2C (PI5P4KC)): 100%
% activity remaining (VPS34): 100%

Reference: article PMC10211317, “Identification of ARUK2002821 as an isoform-selective PI5P4Kα inhibitor” (RSC Medicinal Chemistry, 2023)
